Measured values from patent US20070049564A1 (Wyeth, priority 2005, published 2007).
In brackets after ≈: the same amount, converted by molar mass. Where two headings read alike, the source gives them in different places.

What was measured:
Assay in all cases: MIC, broth microdilution
E. coli GC 2231 = conditions: Escherichia coli
E. coli GC 2235 = conditions: Escherichia coli
E. coli GC 2232 = conditions: Escherichia coli
E. coli GC 2270 = conditions: Escherichia coli
E. coli GC 2271 = conditions: Escherichia coli
E. coli GC 4559 = conditions: Escherichia coli
E. coli GC 4560 = conditions: Escherichia coli
E. coli GC 3226 = conditions: Escherichia coli
E. coli GC 2203 = conditions: Escherichia coli
S. typhimurium GC 2172 = conditions: Salmonella enterica, TYPHIMURIUM
P. aeruginosa GC 2214 = conditions: Pseudomonas aeruginosa
S. aureus GC 6467 = conditions: Staphylococcus aureus
S. aureus GC 2216 = conditions: Staphylococcus aureus
S. aureus GC 6335 = conditions: Staphylococcus aureus
E. faecalis GC 2267 = conditions: Enterococcus faecalis
E. faecalis GC 2242 = conditions: Enterococcus faecalis
E. faecium GC 4556 = conditions: Enterococcus faecium
S. pneumoniae* GC 4465 = conditions: Streptococcus pneumoniae
S. agalactiae GC 4564 = conditions: Streptococcus agalactiae
[1] = read-out: MINIMAL INHIBITORY CONCENTRATION MIC, Human Serum
[2] = read-out: MINIMAL INHIBITORY CONCENTRATION MIC, Mouse Serum
[3] = read-out: MINIMAL INHIBITORY CONCENTRATION MIC, Water

MIC (E. coli GC 2231; GC2231, read-out: MINIMAL INHIBITORY CONCENTRATION MIC, Human Serum): > 64 mg/L | MIC (E. coli GC 2231; GC2231, read-out: MINIMAL INHIBITORY CONCENTRATION MIC, Mouse Serum): > 64 mg/L | MIC (E. coli GC 2231; GC2231, read-out: MINIMAL INHIBITORY CONCENTRATION MIC, Water): > 64 mg/L | MIC (E. coli GC 2235; GC2235, read-out: MINIMAL INHIBITORY CONCENTRATION MIC, Human Serum): 64 mg/L (≈ 99.4 µM) | MIC (E. coli GC 2235; GC2235, read-out: MINIMAL INHIBITORY CONCENTRATION MIC, Mouse Serum): 64 mg/L (≈ 99.4 µM) | MIC (E. coli GC 2235; GC2235, read-out: MINIMAL INHIBITORY CONCENTRATION MIC, Water): > 64 mg/L | MIC (E. coli GC 2232; GC2232, read-out: MINIMAL INHIBITORY CONCENTRATION MIC, Human Serum): > 64 mg/L | MIC (E. coli GC 2232; GC2232, read-out: MINIMAL INHIBITORY CONCENTRATION MIC, Mouse Serum): > 64 mg/L | MIC (E. coli GC 2232; GC2232, read-out: MINIMAL INHIBITORY CONCENTRATION MIC, Water): > 64 mg/L | MIC (E. coli GC 2270; GC2270, read-out: MINIMAL INHIBITORY CONCENTRATION MIC, Human Serum): > 64 mg/L | MIC (E. coli GC 2270; GC2270, read-out: MINIMAL INHIBITORY CONCENTRATION MIC, Mouse Serum): > 64 mg/L | MIC (E. coli GC 2270; GC2270, read-out: MINIMAL INHIBITORY CONCENTRATION MIC, Water): > 64 mg/L | MIC (E. coli GC 2271; GC2271, read-out: MINIMAL INHIBITORY CONCENTRATION MIC, Human Serum): 64 mg/L (≈ 99.4 µM) | MIC (E. coli GC 2271; GC2271, read-out: MINIMAL INHIBITORY CONCENTRATION MIC, Mouse Serum): 64 mg/L (≈ 99.4 µM) | MIC (E. coli GC 2271; GC2271, read-out: MINIMAL INHIBITORY CONCENTRATION MIC, Water): > 64 mg/L | MIC (E. coli GC 4559; GC4559, read-out: MINIMAL INHIBITORY CONCENTRATION MIC, Human Serum): > 64 mg/L | MIC (E. coli GC 4559; GC4559, read-out: MINIMAL INHIBITORY CONCENTRATION MIC, Mouse Serum): > 64 mg/L | MIC (E. coli GC 4559; GC4559, read-out: MINIMAL INHIBITORY CONCENTRATION MIC, Water): > 64 mg/L | MIC (E. coli GC 4560; GC4560, read-out: MINIMAL INHIBITORY CONCENTRATION MIC, Human Serum): 1 mg/L (≈ 1.55 µM) | MIC (E. coli GC 4560; GC4560, read-out: MINIMAL INHIBITORY CONCENTRATION MIC, Mouse Serum): 1 mg/L (≈ 1.55 µM) | MIC (E. coli GC 4560; GC4560, read-out: MINIMAL INHIBITORY CONCENTRATION MIC, Water): 2 mg/L (≈ 3.11 µM) | MIC (E. coli GC 3226; GC3226, read-out: MINIMAL INHIBITORY CONCENTRATION MIC, Human Serum): > 64 mg/L | MIC (E. coli GC 3226; GC3226, read-out: MINIMAL INHIBITORY CONCENTRATION MIC, Mouse Serum): > 64 mg/L | MIC (E. coli GC 3226; GC3226, read-out: MINIMAL INHIBITORY CONCENTRATION MIC, Water): > 64 mg/L | MIC (E. coli GC 2203; GC2203, read-out: MINIMAL INHIBITORY CONCENTRATION MIC, Human Serum): > 64 mg/L | MIC (E. coli GC 2203; GC2203, read-out: MINIMAL INHIBITORY CONCENTRATION MIC, Mouse Serum): > 64 mg/L | MIC (E. coli GC 2203; GC2203, read-out: MINIMAL INHIBITORY CONCENTRATION MIC, Water): > 64 mg/L | MIC (S. typhimurium GC 2172; [1]): > 64 mg/L | MIC (S. typhimurium GC 2172; [2]): > 64 mg/L | MIC (S. typhimurium GC 2172; [3]): > 64 mg/L | MIC (P. aeruginosa GC 2214; GC2214, read-out: MINIMAL INHIBITORY CONCENTRATION MIC, Human Serum): > 64 mg/L | MIC (P. aeruginosa GC 2214; GC2214, read-out: MINIMAL INHIBITORY CONCENTRATION MIC, Mouse Serum): > 64 mg/L | MIC (P. aeruginosa GC 2214; GC2214, read-out: MINIMAL INHIBITORY CONCENTRATION MIC, Water): > 64 mg/L | MIC (S. aureus GC 6467; GC6467, read-out: MINIMAL INHIBITORY CONCENTRATION MIC, Human Serum): 4 mg/L (≈ 6.21 µM) | MIC (S. aureus GC 6467; GC6467, read-out: MINIMAL INHIBITORY CONCENTRATION MIC, Mouse Serum): 4 mg/L (≈ 6.21 µM) | MIC (S. aureus GC 6467; GC6467, read-out: MINIMAL INHIBITORY CONCENTRATION MIC, Water): 8 mg/L (≈ 12.4 µM) | MIC (S. aureus GC 2216; GC2216, read-out: MINIMAL INHIBITORY CONCENTRATION MIC, Human Serum): 2 mg/L (≈ 3.11 µM) | MIC (S. aureus GC 2216; GC2216, read-out: MINIMAL INHIBITORY CONCENTRATION MIC, Mouse Serum): 2 mg/L (≈ 3.11 µM) | MIC (S. aureus GC 2216; GC2216, read-out: MINIMAL INHIBITORY CONCENTRATION MIC, Water): 4 mg/L (≈ 6.21 µM) | MIC (S. aureus GC 6335; GC6335, read-out: MINIMAL INHIBITORY CONCENTRATION MIC, Human Serum): 8 mg/L (≈ 12.4 µM) | MIC (S. aureus GC 6335; GC6335, read-out: MINIMAL INHIBITORY CONCENTRATION MIC, Mouse Serum): 8 mg/L (≈ 12.4 µM) | MIC (S. aureus GC 6335; GC6335, read-out: MINIMAL INHIBITORY CONCENTRATION MIC, Water): 8 mg/L (≈ 12.4 µM) | MIC (E. faecalis GC 2267; GC2267, read-out: MINIMAL INHIBITORY CONCENTRATION MIC, Human Serum): 4 mg/L (≈ 6.21 µM) | MIC (E. faecalis GC 2267; GC2267, read-out: MINIMAL INHIBITORY CONCENTRATION MIC, Mouse Serum): 8 mg/L (≈ 12.4 µM) | MIC (E. faecalis GC 2267; GC2267, read-out: MINIMAL INHIBITORY CONCENTRATION MIC, Water): 8 mg/L (≈ 12.4 µM) | MIC (E. faecalis GC 2242; GC2242, read-out: MINIMAL INHIBITORY CONCENTRATION MIC, Human Serum): 4 mg/L (≈ 6.21 µM) | MIC (E. faecalis GC 2242; GC2242, read-out: MINIMAL INHIBITORY CONCENTRATION MIC, Mouse Serum): 8 mg/L (≈ 12.4 µM) | MIC (E. faecalis GC 2242; GC2242, read-out: MINIMAL INHIBITORY CONCENTRATION MIC, Water): 8 mg/L (≈ 12.4 µM) | MIC (E. faecium GC 4556; GC4556, read-out: MINIMAL INHIBITORY CONCENTRATION MIC, Human Serum): 4 mg/L (≈ 6.21 µM) | MIC (E. faecium GC 4556; GC4556, read-out: MINIMAL INHIBITORY CONCENTRATION MIC, Mouse Serum): 4 mg/L (≈ 6.21 µM) | MIC (E. faecium GC 4556; GC4556, read-out: MINIMAL INHIBITORY CONCENTRATION MIC, Water): 4 mg/L (≈ 6.21 µM) | MIC (S. pneumoniae* GC 4465; [1]): 1 mg/L (≈ 1.55 µM) | MIC (S. pneumoniae* GC 4465; [2]): 1 mg/L (≈ 1.55 µM) | MIC (S. pneumoniae* GC 4465; [3]): 2 mg/L (≈ 3.11 µM) | MIC (S. agalactiae GC 4564; GC4564, read-out: MINIMAL INHIBITORY CONCENTRATION MIC, Human Serum): 4 mg/L (≈ 6.21 µM) | MIC (S. agalactiae GC 4564; GC4564, read-out: MINIMAL INHIBITORY CONCENTRATION MIC, Mouse Serum): 4 mg/L (≈ 6.21 µM) | MIC (S. agalactiae GC 4564; GC4564, read-out: MINIMAL INHIBITORY CONCENTRATION MIC, Water): 4 mg/L (≈ 6.21 µM)
Compound: COC(=O)N(CC(=O)Nc1cc(N(C)C)c2c(c1O)C(=O)C1=C(O)[C@]3(O)C(=O)C(C(N)=O)=C(O)[C@@H](N(C)C)[C@@H]3C[C@@H]1C2)C(C)(C)C [Example 60, methyl 2-{[(5aR,6aS,7S,10aS)-9-(aminocarbonyl)-4,7-bis(dimethylamino)-1,8,10a,11-tetrahydroxy-10,12-dioxo-5,5a,6,6a,7,10,10a,12-octahydrotetracen-2-yl]amino}-2-oxoethyl(tert-butyl)carbamate]
